Our source for the ΔTm values is PMC6019134, “1,2,6-Thiadiazinones as Novel Narrow Spectrum Calcium/Calmodulin-Dependent Protein Kinase Kinase 2 (CaMKK2) Inhibitors” (Molecules : A Journal of Synthetic Chemistry and Natural …, 2018).

One may read the ΔTm as the change in melting temperature against a reference sample.

What all share (assay): DSF thermal shift, kinase panel
Format in all cases: binding
Common to all, as to conditions: 10 μM compound

Assay [1] addresses T1, STK6A (Homo sapiens, UniProt O14965).
T1 construct: TEV-cleavable (cleaved yes); made in house; host or cells: E. coli
T1 sequence (O14965 1-403): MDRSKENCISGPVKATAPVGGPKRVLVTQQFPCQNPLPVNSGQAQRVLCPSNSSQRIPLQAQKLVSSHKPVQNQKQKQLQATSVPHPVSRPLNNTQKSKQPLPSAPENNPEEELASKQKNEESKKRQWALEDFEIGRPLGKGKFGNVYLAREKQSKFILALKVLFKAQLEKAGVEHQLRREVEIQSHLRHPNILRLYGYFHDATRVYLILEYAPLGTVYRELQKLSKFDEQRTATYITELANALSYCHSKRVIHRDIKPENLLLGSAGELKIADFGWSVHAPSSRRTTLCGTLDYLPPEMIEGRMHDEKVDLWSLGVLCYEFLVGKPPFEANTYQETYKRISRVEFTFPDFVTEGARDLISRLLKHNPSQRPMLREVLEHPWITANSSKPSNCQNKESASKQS
Here is the method: (§1) The corresponding dianilino-TDZs (1–5) were tested on a panel of 46 protein kinases representing the major kinome branches at a concentration of 10 μM using a Differential Scanning Fluorimetry (DSF). Only analogues 1–3 induced a significant (>2 °C) thermal shift when incubated with a subset of the proteins (Table 1).
(§2) Kinase selectivity assay—A home-made kinase panel was generated for the following enzymes: AAK1, BMP2K, BMX, BRAF, CAMK1D, CAMK1G, CAMKK1, CAMKK2B, CDC42BPA, CDK2, CDKL1, CHEK2, CLK1, CSNK1G1, CSNK1G3, CSNK2A1, DYRK1A, DYRK2A, EPHA2, GAK, GSG2, MAPK1, MAP2K7, MAPK14B, MAPK3, PHKG2, PIM1, PLK1, PKMYT1, PRPF4B, RPS6KA1A, RPS6KA5A, RPS6KA6A, SLK, SRPK1, SRPK2, STK3, STK6, STK10, STK17A, STK24, STK38L, TRIB2, TTK, VRK1 and VRK2. Proteins were produced in E. coli, purified in a Ni-chelate column, followed by overnight digestion using TEV protease (made in house with an N-terminal 6xHis tag) and dialysis to remove imidazole. To clear samples of uncleaved proteins and the TEV protease, samples were loaded on new Ni-chelate columns. The flow through was collected, concentrated and loaded to a HiLoad Superdex 200 16/600 column (GE Healthcare, Chicago, IL, USA) for final polishing and buffer exchange.
(§3) Starting from 100 µM protein stocks, our kinase panel enzymes were diluted to 1 µM in buffer 100 mM K2HPO4 pH 7.5 containing 150 mM NaCl, 10% glycerol and 5X dye (Applied Biosystems catalogue 4461806). The protein/dye mixture was transferred to a 384-well PCR microplate having 20 µL per well. Compounds in DMSO at 10 mM concentration were added in 20 nL volume, using a liquid handling device setup with a pin head, to make 10 µM compound concentration in the assay plate.
(§4) Protein thermal shift data was measured in a qPCR instrument (Applied Biosystems QuantStudio 6) programmed to equilibrate the plate at 25 °C for 5 min followed by ramping the temperature to 95 °C at a rate of 0.05 °C/s. Data was processed using Protein Thermal shift software (Applied Biosystems) by fitting experimental curves to a Boltzmann function to calculate differential thermal shifts (dTm) referenced to protein/dye in 0.2% DMSO.

Assay [2] has as its target T2, CAMK1D (Homo sapiens, UniProt Q8IU85).
T2 construct: purchased in-house (home-made panel, SGC-style construct names)
Here is the method:
as §1, §2, §3, §4

For assay [3], the target named is T3, DYRK1AA (Homo sapiens, UniProt Q13627).
T3 construct: purchased in-house (home-made panel, SGC-style construct names)
The protocol: as §1, §2, §3, §4

In assay [4] the target is T4, STK3 (Homo sapiens, UniProt Q13188).
T4 construct: purchased in-house (home-made panel, SGC-style construct names)
T4 sequence (Q13188 1-491): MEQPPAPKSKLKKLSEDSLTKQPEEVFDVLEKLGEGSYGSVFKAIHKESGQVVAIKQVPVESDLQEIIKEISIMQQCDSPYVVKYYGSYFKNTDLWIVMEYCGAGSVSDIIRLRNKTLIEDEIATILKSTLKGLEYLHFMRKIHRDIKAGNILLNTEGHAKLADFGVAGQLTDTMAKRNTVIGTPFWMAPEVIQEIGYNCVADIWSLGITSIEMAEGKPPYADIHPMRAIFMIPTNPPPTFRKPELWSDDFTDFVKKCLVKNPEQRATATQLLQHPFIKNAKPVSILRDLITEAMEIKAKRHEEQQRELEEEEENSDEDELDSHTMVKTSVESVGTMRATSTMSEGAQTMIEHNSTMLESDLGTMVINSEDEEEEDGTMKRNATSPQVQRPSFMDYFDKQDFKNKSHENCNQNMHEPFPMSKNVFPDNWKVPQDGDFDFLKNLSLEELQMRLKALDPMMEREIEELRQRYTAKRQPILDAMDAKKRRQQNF
Here is the method: as §1, §2, §3, §4

Assay [5] has as its target T5, MAP2K7A (Homo sapiens, UniProt O14733).
T5 construct: purchased in-house (home-made panel, SGC-style construct names)
T5 sequence (O14733 1-419): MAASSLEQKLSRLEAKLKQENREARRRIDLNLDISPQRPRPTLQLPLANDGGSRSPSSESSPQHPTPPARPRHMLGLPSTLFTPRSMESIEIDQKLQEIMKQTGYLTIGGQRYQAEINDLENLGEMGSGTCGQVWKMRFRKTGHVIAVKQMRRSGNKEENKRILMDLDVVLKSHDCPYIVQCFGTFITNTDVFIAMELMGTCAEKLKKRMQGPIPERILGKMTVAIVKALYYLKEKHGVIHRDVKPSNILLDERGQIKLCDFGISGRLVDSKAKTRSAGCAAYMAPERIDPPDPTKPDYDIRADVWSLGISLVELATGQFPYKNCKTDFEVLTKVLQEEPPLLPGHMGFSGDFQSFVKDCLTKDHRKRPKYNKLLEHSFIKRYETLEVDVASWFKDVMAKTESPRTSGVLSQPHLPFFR
The protocol: as §1, §2, §3, §4

Assay [6] concerns the target T6, STK38LA (Homo sapiens, UniProt Q9Y2H1).
T6 construct: TEV-cleavable (cleaved yes); made in house; host or cells: E. coli
Here is the method:
as §1, §2, §3, §4

Assay [7] addresses T7, BRAFA (Homo sapiens, UniProt P15056).
T7 construct: purchased in-house (home-made panel, SGC-style construct names)
Here is the method: as §1, §2, §3, §4

Assay [8] deals with T8, RPS6KA5A (Homo sapiens, UniProt O75582).
T8 construct: purchased in-house (home-made panel, SGC-style construct names)
The protocol:
as §1, §2, §3, §4

Assay [9] deals with T9, EPHA2A (Homo sapiens, UniProt P29317).
T9 construct: purchased in-house (home-made panel, SGC-style construct names)
The protocol:
as §1, §2, §3, §4

Assay [10] deals with T10, CDKL1 (Homo sapiens, UniProt Q00532).
T10 construct: purchased in-house (home-made panel, SGC-style construct names)
Here is the method: as §1, §2, §3, §4

T6 sequence (Q9Y2H1 whole entry): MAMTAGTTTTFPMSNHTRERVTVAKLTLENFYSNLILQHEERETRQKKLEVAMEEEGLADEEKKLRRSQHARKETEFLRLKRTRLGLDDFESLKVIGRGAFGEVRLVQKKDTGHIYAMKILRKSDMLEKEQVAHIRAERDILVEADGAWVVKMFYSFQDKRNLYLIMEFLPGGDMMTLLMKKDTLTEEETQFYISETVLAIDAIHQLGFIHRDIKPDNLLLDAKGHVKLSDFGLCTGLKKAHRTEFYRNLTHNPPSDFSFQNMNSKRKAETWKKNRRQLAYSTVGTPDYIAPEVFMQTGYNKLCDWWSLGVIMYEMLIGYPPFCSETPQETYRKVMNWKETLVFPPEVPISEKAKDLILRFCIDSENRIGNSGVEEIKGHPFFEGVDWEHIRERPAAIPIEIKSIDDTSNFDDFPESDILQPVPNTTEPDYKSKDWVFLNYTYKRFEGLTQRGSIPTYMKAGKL
T7 sequence (P15056 whole entry): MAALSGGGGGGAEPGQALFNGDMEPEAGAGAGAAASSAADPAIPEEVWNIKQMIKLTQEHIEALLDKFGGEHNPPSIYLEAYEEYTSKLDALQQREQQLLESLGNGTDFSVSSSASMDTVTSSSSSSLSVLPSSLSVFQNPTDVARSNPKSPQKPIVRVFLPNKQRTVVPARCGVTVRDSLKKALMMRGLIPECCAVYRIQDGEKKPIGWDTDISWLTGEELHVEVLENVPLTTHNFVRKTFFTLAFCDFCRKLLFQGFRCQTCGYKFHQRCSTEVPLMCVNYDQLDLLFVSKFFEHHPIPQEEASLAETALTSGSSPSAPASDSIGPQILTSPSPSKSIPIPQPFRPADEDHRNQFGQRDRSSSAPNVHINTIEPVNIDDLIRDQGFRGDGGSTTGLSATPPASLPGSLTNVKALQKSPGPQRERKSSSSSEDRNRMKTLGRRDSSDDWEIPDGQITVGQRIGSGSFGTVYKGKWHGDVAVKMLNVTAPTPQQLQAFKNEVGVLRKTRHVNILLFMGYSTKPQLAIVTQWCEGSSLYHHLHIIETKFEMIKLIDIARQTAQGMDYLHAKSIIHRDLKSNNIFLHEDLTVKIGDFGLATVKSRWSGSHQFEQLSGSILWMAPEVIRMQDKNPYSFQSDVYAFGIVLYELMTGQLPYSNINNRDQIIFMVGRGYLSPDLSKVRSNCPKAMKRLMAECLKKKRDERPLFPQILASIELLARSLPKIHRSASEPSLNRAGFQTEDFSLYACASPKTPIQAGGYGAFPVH
T2 sequence (Q8IU85 whole entry): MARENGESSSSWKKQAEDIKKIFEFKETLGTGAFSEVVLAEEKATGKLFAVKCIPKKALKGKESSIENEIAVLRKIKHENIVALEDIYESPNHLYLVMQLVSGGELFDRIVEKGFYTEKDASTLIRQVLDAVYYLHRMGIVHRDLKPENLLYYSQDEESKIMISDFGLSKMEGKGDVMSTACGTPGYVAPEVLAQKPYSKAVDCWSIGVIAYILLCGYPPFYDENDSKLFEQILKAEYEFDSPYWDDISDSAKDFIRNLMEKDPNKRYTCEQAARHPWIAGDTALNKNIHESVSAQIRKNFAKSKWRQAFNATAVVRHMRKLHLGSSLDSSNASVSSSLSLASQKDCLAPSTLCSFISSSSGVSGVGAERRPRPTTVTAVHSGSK
T8 sequence (O75582 whole entry): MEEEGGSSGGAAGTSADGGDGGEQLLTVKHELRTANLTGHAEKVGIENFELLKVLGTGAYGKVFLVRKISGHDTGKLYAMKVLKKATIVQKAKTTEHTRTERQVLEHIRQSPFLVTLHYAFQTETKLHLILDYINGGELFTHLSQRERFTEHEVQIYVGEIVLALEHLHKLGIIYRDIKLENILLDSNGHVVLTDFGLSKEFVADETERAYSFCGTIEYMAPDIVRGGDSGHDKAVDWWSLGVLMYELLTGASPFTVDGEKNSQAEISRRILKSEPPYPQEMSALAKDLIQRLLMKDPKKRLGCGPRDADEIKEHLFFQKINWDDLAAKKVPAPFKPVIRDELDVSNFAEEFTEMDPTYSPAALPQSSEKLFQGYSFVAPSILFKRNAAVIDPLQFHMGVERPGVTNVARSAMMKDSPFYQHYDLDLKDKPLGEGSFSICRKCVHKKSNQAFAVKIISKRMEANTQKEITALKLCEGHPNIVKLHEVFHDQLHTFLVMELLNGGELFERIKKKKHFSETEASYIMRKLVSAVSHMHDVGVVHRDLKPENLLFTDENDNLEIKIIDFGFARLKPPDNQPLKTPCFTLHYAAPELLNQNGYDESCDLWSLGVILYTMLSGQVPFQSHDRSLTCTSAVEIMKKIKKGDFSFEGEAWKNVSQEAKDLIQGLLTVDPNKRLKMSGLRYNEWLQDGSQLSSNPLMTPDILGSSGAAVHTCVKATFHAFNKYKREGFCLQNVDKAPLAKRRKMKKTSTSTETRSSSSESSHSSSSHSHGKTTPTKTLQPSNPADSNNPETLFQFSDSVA
T10 sequence (Q00532 whole entry): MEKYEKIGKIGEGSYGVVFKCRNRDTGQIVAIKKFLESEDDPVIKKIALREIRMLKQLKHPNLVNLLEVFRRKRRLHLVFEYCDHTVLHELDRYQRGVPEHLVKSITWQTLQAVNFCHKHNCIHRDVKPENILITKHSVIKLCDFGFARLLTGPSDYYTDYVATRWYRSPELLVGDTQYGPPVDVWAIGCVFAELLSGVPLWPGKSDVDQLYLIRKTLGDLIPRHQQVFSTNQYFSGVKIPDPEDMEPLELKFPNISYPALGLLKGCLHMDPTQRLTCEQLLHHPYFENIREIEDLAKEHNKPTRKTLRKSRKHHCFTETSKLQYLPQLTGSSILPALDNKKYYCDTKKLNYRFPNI
T9 sequence (P29317 24-976): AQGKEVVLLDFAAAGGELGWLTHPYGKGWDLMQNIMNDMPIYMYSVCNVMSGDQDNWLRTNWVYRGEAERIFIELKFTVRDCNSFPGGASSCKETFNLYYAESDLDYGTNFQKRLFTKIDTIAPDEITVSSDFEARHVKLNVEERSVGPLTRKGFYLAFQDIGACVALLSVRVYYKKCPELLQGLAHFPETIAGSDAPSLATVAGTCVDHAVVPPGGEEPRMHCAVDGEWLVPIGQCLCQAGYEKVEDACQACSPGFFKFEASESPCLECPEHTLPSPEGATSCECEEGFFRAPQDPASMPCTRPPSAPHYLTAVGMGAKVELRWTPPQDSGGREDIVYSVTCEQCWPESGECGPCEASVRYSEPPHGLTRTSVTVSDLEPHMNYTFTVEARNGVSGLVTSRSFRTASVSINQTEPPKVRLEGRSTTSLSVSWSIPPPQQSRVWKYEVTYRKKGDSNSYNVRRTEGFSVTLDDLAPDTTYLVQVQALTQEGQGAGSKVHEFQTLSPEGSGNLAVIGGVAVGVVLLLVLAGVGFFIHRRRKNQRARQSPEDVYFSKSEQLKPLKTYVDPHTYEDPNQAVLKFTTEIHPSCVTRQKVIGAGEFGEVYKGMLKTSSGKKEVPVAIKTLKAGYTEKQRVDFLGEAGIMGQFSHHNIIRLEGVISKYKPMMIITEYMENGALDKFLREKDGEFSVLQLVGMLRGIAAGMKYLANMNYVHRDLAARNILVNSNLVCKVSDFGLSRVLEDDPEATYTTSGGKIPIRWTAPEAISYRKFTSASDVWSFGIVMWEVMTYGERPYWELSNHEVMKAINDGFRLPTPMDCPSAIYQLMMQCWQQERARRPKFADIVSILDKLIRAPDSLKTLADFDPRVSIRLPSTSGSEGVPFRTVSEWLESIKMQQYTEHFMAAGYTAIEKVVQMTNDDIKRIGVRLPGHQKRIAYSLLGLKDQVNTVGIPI

As for `CNC(=O)c1ccccc1Nc1nsnc(Nc2cccc(CS(C)(=O)=O)c2)c1=O` [Compound 4, N-Methyl-2-([5-({3-[(methylsulfonyl)methyl]phenyl}amino)-4-oxo-4H-1,2,6-thiadiazin-3-yl]-amino}-benzamide], the ΔTm at 10 µM in assay [1] was -0.1 °C; in assay [2] it was -1.3 °C; in assay [3], -0.5 °C; in assay [4], -0.4 °C; in [5], 0.6 °C; in [6] it was 0.4 °C. Also, the ΔTm at 10 µM was 0.1 °C in assay [7], -1.2 °C in assay [8], -0.1 °C in [9] and 0.5 °C in assay [10].
On to `Cc1ccc(Nc2nsnc(Nc3cccc(C(N)=O)c3)c2=O)cc1O` [Compound 1, 3-({5-[(3-Hydroxy-4-methylphenyl)amino]-4-oxo-4H-1,2,6-thiadiazin-3-yl}amino)benzamide], for which the ΔTm at 10 µM in assay [1] was -0.3 °C; in [2] it was 0.8 °C; in [3] it was -0.6 °C; in assay [4] it was 0.2 °C; in assay [5] it was 1.1 °C; in [6], 0.2 °C. Also, the ΔTm at 10 µM is -0.1 °C in assay [7], -0.9 °C in assay [8], 0.2 °C in assay [9] and 1.2 °C in assay [10].
For `CNC(=O)c1ccccc1Nc1nsnc(Nc2ccc(N3CCOCC3)cc2)c1=O` [Compound 5, N-Methyl-2-({5-[(4-morpholinophenyl)amino]-4-oxo-4H-1,2,6-thiadiazin-3-yl}amino)benzamide], the thermal shift (ΔTm) at 10 µM in assay [1] is 0.5 °C; in [2], -0.9 °C; in assay [3], -0.8 °C; in [4] it was -0.3 °C; in [5] it was 1 °C; in assay [6], 0.3 °C. Also, the thermal shift (ΔTm) at 10 µM was 0.4 °C in [7], -1.1 °C in assay [8], 0 °C in assay [9] and 0.5 °C in assay [10].
Take `Cc1ccc(Nc2nsnc(Nc3ccc4c(c3)CS(=O)(=O)C4)c2=O)cc1O` [Compound 3, 3-[(2,2-Dioxido-1,3-dihydrobenzo[c]thiophen-5-yl)amino]-5-[(3-hydroxy-4-methylphenyl)amino]-4H-1,2,6-thiadiazin-4-one]: the ΔTm at 10 µM in assay [1] was 0.1 °C; in assay [2], 1.4 °C; in [3] it was -0.1 °C; in assay [4], 1.1 °C; in assay [5], 3.2 °C; in assay [6] it was 0.8 °C. Also, the ΔTm at 10 µM in assay [7] was 0.7 °C; in assay [8] it was -0.3 °C; in assay [9] it was 0.8 °C; in [10], 0.9 °C.
Consider `Cc1ccc(Nc2nsnc(Nc3ccc(C(N)=O)cc3)c2=O)cc1O` [Compound 2, 4-({5-[(3-Hydroxy-4-methylphenyl)amino]-4-oxo-4H-1,2,6-thiadiazin-3-yl}amino)benzamide], for which the ΔTm at 10 µM in assay [1] came out at 1 °C; in assay [2], 4.3 °C; in [3] it was 0.9 °C; in [4], 2.1 °C; in assay [5], 3.1 °C; in [6], 0.4 °C. In addition, the ΔTm at 10 µM in assay [7] worked out at 0.2 °C; in [8], 1.7 °C; in assay [9], 0.5 °C; in assay [10] it was 1 °C.
